# Active and inactive are the calls of the source.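 The calls were made as follows: active = EC50 below a set limit, with activity reproduced on retest from dry powder; inactive = the rest.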
# System: CSM 14.1 cells, thapsigargin ER-stress death rescue, ATPlite 24 h
# Assay: thapsigargin death rescue by analogs – CSM14.1 cells, ATP luminescence, benzodiazepine series, SAR follow-up (AID 1247)
row,SMILES,EC50
1,CCOc1cccc(C2Nc3ccccc3NC3=C2C(=O)CC(c2ccc(OC)cc2)C3)c1 (configuration not stated),20.4 µM
2,COc1ccc(C2CC(=O)C3=C(C2)Nc2ccccc2NC3c2ccc(C(C)C)cc2)cc1 (configuration not stated),8.22 µM
3,COc1ccc(C2CC(=O)C3=C(C2)Nc2ccccc2NC3c2ccc(NC(C)=O)cc2)cc1 (configuration not stated),> 100 µM (inactive)
4,Cc1ccc(C2Nc3ccccc3NC3=C2C(=O)CC(c2ccc(Cl)cc2)C3)cc1 (configuration not stated),9.76 µM
5,O=C1CC(c2ccccc2)CC2=C1C(c1c(F)cccc1Cl)Nc1ccccc1N2 (configuration not stated),18.1 µM
6,CCOc1cc(C2Nc3ccccc3NC3=C2C(=O)CC(c2ccc(OC)cc2)C3)cc(Cl)c1O (configuration not stated),23.5 µM
7,COc1ccc(C2CC(=O)C3=C(C2)Nc2ccccc2NC3c2ccc(O)cc2)cc1 (configuration not stated),> 100 µM (inactive)
8,CCCCOc1ccccc1C1Nc2ccccc2NC2=C1C(=O)CC(c1ccccc1)C2 (configuration not stated),13.2 µM
9,O=C1CC(c2ccccc2)CC2=C1C(c1ccc(Cl)cc1Cl)Nc1ccccc1N2 (configuration not stated),> 100 µM (inactive)
10,COc1ccc(C2CC(=O)C3=C(C2)Nc2ccccc2NC3c2c(F)cccc2Cl)cc1 (configuration not stated),13.5 µM
11,COc1ccc(C2CC(=O)C3=C(C2)Nc2ccccc2NC3c2ccncc2)cc1OC (configuration not stated),> 100 µM (inactive)
12,COc1ccc(C2CC(=O)C3=C(C2)Nc2ccccc2NC3c2c(F)cccc2F)cc1 (configuration not stated),33 µM
13,COc1ccc(C2CC(=O)C3=C(C2)Nc2ccccc2NC3c2ccc3ccccc3c2)cc1 (configuration not stated),11.5 µM
14,COc1ccc(C2CC(=O)C3=C(C2)Nc2ccccc2NC3c2cc(C)ccc2C)cc1 (configuration not stated),17.2 µM
15,COc1ccc(C2CC(=O)C3=C(C2)Nc2ccccc2NC3c2cccc(O)c2)cc1 (configuration not stated),> 100 µM (inactive)
16,COc1ccc(C2CC(=O)C3=C(C2)Nc2ccccc2NC3c2ccccc2C)cc1OC (configuration not stated),35.8 µM
17,COc1ccc(C2CC(=O)C3=C(C2)Nc2ccccc2NC3c2ccc(C)cc2)cc1OC (configuration not stated),28.1 µM
18,COc1ccc(C2CC(=O)C3=C(C2)Nc2ccccc2NC3c2c(Cl)cccc2Cl)cc1 (configuration not stated),24.4 µM
19,CSc1ccc(C2Nc3ccccc3NC3=C2C(=O)CC(c2ccccc2)C3)cc1 (configuration not stated),13.9 µM

row,SMILES,EC50
1,O=C1CC(c2ccccc2)CC2=C1C(c1cccc3ccccc13)Nc1ccccc1N2 (configuration not stated),16 µM
2,COc1ccc(C2CC(=O)C3=C(C2)Nc2ccccc2NC3c2cccc(Oc3ccccc3)c2)cc1OC (configuration not stated),8.07 µM
3,COc1ccc(C2CC(=O)C3=C(C2)Nc2ccccc2NC3c2ccccc2C(F)(F)F)cc1OC (configuration not stated),17.4 µM
4,CCN(CC)c1ccc(C2Nc3ccccc3NC3=C2C(=O)CC(c2ccccc2)C3)cc1 (configuration not stated),7.15 µM
5,COc1ccc(C2CC(=O)C3=C(C2)Nc2ccccc2NC3c2ccc(F)c(F)c2)cc1 (configuration not stated),20.9 µM
6,COc1ccc(C2CC(=O)C3=C(C2)Nc2ccccc2NC3c2ccc(-c3ccccc3)cc2)cc1OC (configuration not stated),14.7 µM
7,COc1ccc(C2CC(=O)C3=C(C2)Nc2ccccc2NC3c2cccc(C(F)(F)F)c2)cc1OC (configuration not stated),16.6 µM
8,CCN(CC)c1ccc(C2Nc3ccccc3NC3=C2C(=O)CC(c2ccc(OC)cc2)C3)cc1 (configuration not stated),8.53 µM
9,COc1ccc(C2CC(=O)C3=C(C2)Nc2ccccc2NC3c2ccccc2[N+](=O)[O-])cc1OC (configuration not stated),36.8 µM
10,COc1ccc(C2CC(=O)C3=C(C2)Nc2ccccc2NC3c2ccccc2OC(C)C)cc1 (configuration not stated),17.7 µM
11,CC(C)Oc1ccccc1C1Nc2ccccc2NC2=C1C(=O)CC(c1ccc(Cl)cc1)C2 (configuration not stated),6.03 µM
12,COc1ccc(C2CC(=O)C3=C(C2)Nc2ccccc2NC3c2cccc(Br)c2)cc1OC (configuration not stated),16.9 µM
13,CCOc1cc(C2Nc3ccccc3NC3=C2C(=O)CC(c2ccc(OC)cc2)C3)cc(Br)c1O (configuration not stated),18 µM
14,COc1ccc(C2Nc3ccccc3NC3=C2C(=O)CC(c2ccc(Cl)cc2)C3)cc1 (configuration not stated),11.1 µM
15,CCCOc1ccc(C2Nc3ccccc3NC3=C2C(=O)CC(c2ccc(OC)c(OC)c2)C3)cc1 (configuration not stated),16.2 µM
16,COc1ccc(C2CC(=O)C3=C(C2)Nc2ccccc2NC3c2ccccc2Cl)cc1OC (configuration not stated),40.3 µM
17,COc1ccc(C2CC(=O)C3=C(C2)Nc2ccccc2NC3c2cccc(Cl)c2)cc1 (configuration not stated),20.7 µM
18,Cc1ccc(C2Nc3ccccc3NC3=C2C(=O)CC(c2ccccc2)C3)cc1 (configuration not stated),19.2 µM

# Source: PubChem BioAssay AID1247 (Sanford-Burnham Center for Chemical Genomics, 2008)
